Source: BigSolDB 2.1
Values joined by “and” are separate entries in the source; they are usually repeats but may differ in a detail not shown here. Equal entries are not always repeated. Each block holds one compound with its values, some of them ahead of it.

solubility (mole fraction) (in n-propanol, 283.15 K): 0.0201
solubility (mole fraction) (in n-propanol, 288.15 K): 0.0283
solubility (mole fraction) (in n-propanol, 293.15 K): 0.0389
solubility (mole fraction) (in n-propanol, 298.15 K): 0.0519
solubility (mole fraction) (in n-propanol, 303.15 K): 0.0677
solubility (mole fraction) (in n-propanol, 308.15 K): 0.0851
solubility (mole fraction) (in n-propanol, 313.15 K): 0.0938
solubility (mole fraction) (in n-propanol, 318.15 K): 0.129
solubility (mole fraction) (in n-propanol, 323.15 K): 0.151
Structure (SMILES): C/C=C/C=C/C(=O)O

solubility (mole fraction) (in water, 293.15 K): 0.00155 and 0.00159 and 0.00152
solubility (mole fraction) (in water, 310.15 K): 0.00272
solubility (mole fraction) (in water, 318.15 K): 0.0036
Structure (SMILES): CC(=O)Nc1ccc(O)cc1

solubility (mole fraction) (in ethanol, 298.15 K): 0.000214
solubility (mole fraction) (in water, 298.15 K): 4.01e-07
Structure (SMILES): CN1C(C(=O)Nc2ccccn2)=C(O)c2ccccc2S1(=O)=O

solubility (mole fraction) (in water, 298.15 K): 5.86e-07
Structure (SMILES): C(=N\Nc1ccccc1)/c1ccc[nH]1

solubility (mole fraction) (in dichloromethane, 283.15 K): 0.00567
solubility (mole fraction) (in dichloromethane, 288.15 K): 0.00642
solubility (mole fraction) (in dichloromethane, 293.15 K): 0.00731
solubility (mole fraction) (in dichloromethane, 298.15 K): 0.00843
solubility (mole fraction) (in dichloromethane, 303.15 K): 0.0103
solubility (mole fraction) (in dichloromethane, 308.15 K): 0.0133
Structure (SMILES): O=P(Oc1ccccc1)(Oc1ccccc1)N1CCN(P(=O)(Oc2ccccc2)Oc2ccccc2)CC1

solubility (mole fraction) (in DMAc, 278.15 K): 0.0106
solubility (mole fraction) (in DMAc, 283.15 K): 0.0124
solubility (mole fraction) (in DMAc, 288.15 K): 0.0147
solubility (mole fraction) (in DMAc, 293.15 K): 0.017
solubility (mole fraction) (in DMAc, 298.15 K): 0.0199
solubility (mole fraction) (in DMAc, 303.15 K): 0.0227
solubility (mole fraction) (in DMAc, 308.15 K): 0.0259
solubility (mole fraction) (in DMAc, 313.15 K): 0.0298
solubility (mole fraction) (in DMAc, 318.15 K): 0.0343
Structure (SMILES): CCC1=C(C)CN(C(=O)NCCc2ccc(S(=O)(=O)NC(=O)NC3CCC(C)CC3)cc2)C1=O (stereo not given)

solubility (mole fraction) (in water, 293.15 K): 0.0483
solubility (mole fraction) (in water, 298.15 K): 0.0499
solubility (mole fraction) (in water, 303.15 K): 0.0525
solubility (mole fraction) (in water, 308.15 K): 0.0551
solubility (mole fraction) (in water, 313.15 K): 0.0585
solubility (mole fraction) (in water, 318.15 K): 0.0614
Structure (SMILES): O=C(O)[C@@H]1C[C@@H](O)CN1

solubility (mole fraction) (in acetone, 293 K): 0.0183
solubility (mole fraction) (in acetone, 298 K): 0.0208
solubility (mole fraction) (in acetone, 303 K): 0.0236
solubility (mole fraction) (in acetone, 308 K): 0.0273
solubility (mole fraction) (in acetone, 313 K): 0.0316
solubility (mole fraction) (in acetone, 318 K): 0.0365
Structure (SMILES): COc1ccc2c(c1)c(CC(=O)O)c(C)n2C(=O)c1ccc(Cl)cc1

Second part, the compound before the results:

Structure (SMILES): CCCCCC
solubility (mole fraction) (in water, 280.8 K): 3.1e-06
solubility (mole fraction) (in water, 295.5 K): 2.7e-06

Structure (SMILES): O=C1Nc2ccc(Cl)cc2C(c2ccccc2Cl)=NC1O (stereo not given)
solubility (mole fraction) (in PEG-200, 303.2 K): 0.0958
solubility (mole fraction) (in water, 303.2 K): 3e-06

Structure (SMILES): CC1(C)S[C@@H]2[C@H](N)C(=O)N2[C@H]1C(=O)O
solubility (mole fraction) (in water, 274.15 K): 0.000132
solubility (mole fraction) (in water, 278.15 K): 0.000143
solubility (mole fraction) (in water, 283.15 K): 0.000159
solubility (mole fraction) (in water, 289.15 K): 0.000173
solubility (mole fraction) (in water, 293.15 K): 0.000183
solubility (mole fraction) (in water, 298.15 K): 0.000203
solubility (mole fraction) (in water, 303.15 K): 0.000226

Structure (SMILES): CC1=C(/C=C/C(C)=C/C=C/C(C)=C/C=C/C=C(C)/C=C/C=C(C)/C=C/C2=C(C)CCCC2(C)C)C(C)(C)CCC1
solubility (mole fraction) (in 1,2-dimethoxyethane, 293.15 K): 6.3e-05
solubility (mole fraction) (in 1-hexene, 293.15 K): 0.000187
solubility (mole fraction) (in 2-butanone, 293.15 K): 9.1e-05
solubility (mole fraction) (in MTBE, 293.15 K): 0.000119
solubility (mole fraction) (in acetone, 293.15 K): 1.4e-05
solubility (mole fraction) (in cyclohexane, 293.15 K): 0.000302
solubility (mole fraction) (in cyclohexanone, 293.15 K): 0.00032
solubility (mole fraction) (in dibutyl ether, 293.15 K): 0.000158
solubility (mole fraction) (in diglyme, 293.15 K): 9.6e-05
solubility (mole fraction) (in n-hexane, 293.15 K): 8.9e-05
solubility (mole fraction) (in n-octanol, 293.15 K): 2.79e-05
solubility (mole fraction) (in tert-amyl methyl ether, 293.15 K): 0.00018
solubility (mole fraction) (in toluene, 293.15 K): 0.00109

Structure (SMILES): Nc1cc(Cl)nnc1Cl
solubility (mole fraction) (in ethanol, 303.15 K): 0.0171
solubility (mole fraction) (in ethanol, 305.65 K): 0.0179
solubility (mole fraction) (in ethanol, 308.15 K): 0.0185
solubility (mole fraction) (in ethanol, 310.65 K): 0.0192
solubility (mole fraction) (in ethanol, 313.15 K): 0.0202
solubility (mole fraction) (in ethanol, 315.65 K): 0.0212
solubility (mole fraction) (in ethanol, 318.15 K): 0.022
solubility (mole fraction) (in ethanol, 320.65 K): 0.023
solubility (mole fraction) (in ethanol, 323.15 K): 0.024

Structure (SMILES): OCCCCCCO
solubility (mole fraction) (in ethyl acetate, 278.15 K): 0.0148
solubility (mole fraction) (in ethyl acetate, 283.15 K): 0.0274
solubility (mole fraction) (in ethyl acetate, 288.15 K): 0.0387
solubility (mole fraction) (in ethyl acetate, 293.15 K): 0.0512
solubility (mole fraction) (in ethyl acetate, 298.15 K): 0.0834
